The conditions of this data set: human.

Molecules are shown by their SMILES. Where two headings read alike, the source gives them in different places.

For one compound, bioavailability results are on record in US20160151275A1, “METHOD AND DEVICES FOR MANUFACTURING AND DELIVERING OF AEROSOLIZED FORMULATIONS” (priority 2014, published 2016).

Broadly, the bioavailability is the share of a dose that reaches the circulation, judged against a reference dose that is usually intravenous. `Cn1c(=O)c2c(ncn2C)n(C)c1=O` [caffeine] showed a bioavailability of roughly 10%. This compound also displayed a bioavailability (inhaled or intranasal) of 80 to 90%.
